The subject of assay [1] is Pseudomonas aeruginosa. In words: Antimicrobial activity against Pseudomonas aeruginosa. The assay is classed as functional.
For assay [2], the system named is KB. In words: Cytotoxicity against human KB cells. The assay is classed as functional, cell-based.
The subject of assay [3] is Proteus mirabilis. In words: Antimicrobial activity against Proteus mirabilis. The assay is classed as functional.
Assay [4] deals with Enterococcus faecalis. Description: Antimicrobial activity against Streptococcus faecalis. The assay is classed as functional.
Assay [5] concerns Klebsiella pneumoniae. Description: Antimicrobial activity against Klebsiella pneumoniae. The assay is classed as functional.
For assay [6], the system named is Serratia marcescens. Description: Antimicrobial activity against Serratia marcescens. The assay is classed as functional.
Assay [7] relates to Morganella morganii. In words: Antimicrobial activity against Morganella morganii. The assay is classed as functional.
For assay [8], the system named is Staphylococcus aureus. In words: Antimicrobial activity against methicillin-resistant Staphylococcus aureus. The assay is classed as functional.
The test system of assay [9] is Escherichia coli. Description: Antimicrobial activity against Escherichia coli. The assay is classed as functional.
The test system of assay [10] is P388. In words: Cytotoxicity against mouse P388 cells. The assay is classed as functional, cell-based.
Assay [11] has as its system Staphylococcus aureus. In words: Antimicrobial activity against methicillin-sensitive Staphylococcus aureus. The assay is classed as functional.

Converted amounts (≈) assume the structure as drawn.

In the case of `CC(C)=CCCC1(C)C=Cc2cc(O)ccc2O1` (stereo not drawn) [CORDIACHROMENE A], the MIC (in general, the lowest concentration found to suppress growth) in assay [1] was > 256 µg/mL; in assay [3], > 256 µg/mL; in [4] it was 64 µg/mL (≈ 262 µM); in assay [5], > 256 µg/mL; in assay [6], > 256 µg/mL; in assay [7] it was > 256 µg/mL. The results for the MIC in assay [8], in assay [9] and in assay [11] were 64 µg/mL (≈ 262 µM), > 256 µg/mL and 64 µg/mL (≈ 262 µM), respectively. Further, the IC50 (as a rule, the concentration at which inhibition is half-maximal) came to 36 µg/mL (≈ 147 µM) in assay [2] and 0.5 µg/mL (≈ 2.05 µM) in assay [10]. Moreover, the MBC/MIC ratio in assay [4] amounted to 1; in [8], 2; in assay [11], 2.

For `CC(C)=CCC/C(C)=C/Cc1cc(O)ccc1O` [GEROQUINOL], the minimal inhibitory concentration (MIC) in [1] was > 256 µg/mL; in assay [3], > 256 µg/mL; in [4], 64 µg/mL (≈ 260 µM); in assay [5] it was > 256 µg/mL; in [6], 128 µg/mL (≈ 520 µM); in [7], > 256 µg/mL. The MIC in assay [8] was 64 µg/mL (≈ 260 µM); in assay [9], > 256 µg/mL; in assay [11], 64 µg/mL (≈ 260 µM). Besides, the IC50 worked out at 4.3 µg/mL (≈ 17.5 µM) in assay [2] and 0.034 µg/mL (≈ 0.138 µM) in assay [10]. Besides, the MBC/MIC ratio is 1 in assay [4], 2 in [8] and 2 in assay [11].
